Assays:
MM1 cells [1] = conditions: Int. J. Cancer 81, 918-922 (1999), cited from earlier work; for suppressed LPA-induced invasion by: studied by Mukai et al.; for invasion suppressing action on LPA-induced invasion (in words): reported by Mukai et al.
MM1 cells [2] = experiment: Effect on the proliferation of MM1 cells; assay type: cell-based, rat; conditions: 12.5 μM or 25 μM cPA, 10% FBS, 24 hours and 72 hours
Method: 12.5 μM and 25 μM cPA were added to media containing 10% FBS, and then the cells were cultured under conditions of 37° C. and 5% CO2 for 24 hours and 72 hours. The number of the MM1 cells was counted using a hemocytometer.

MM1 cells [3] = experiment: In vitro invasion assay, FBS-induced invasion of MM1 cells; assay type: cell-based, rat; conditions: 25 μM cPA derivative, 10% FBS, 20 hours
Method: (§1) The abdomen of a male DONRYU rat (300 g, NIPPON BIO-SUPP. CENTER) was opened aseptically. The thus obtained mesenterium was treated with 0.25% trypsin at 37° C. for 15 minutes, filtrated with a 150 μm stainless mesh, and then centrifuged to collect mesothelial cells. The cells were cultured under conditions of 37° C. and 5% CO2 in a medium which was obtained by adding 10% FBS to Eagle's MEMI (Nissui) supplemented with Eagle's MEM amino acid vitamin medium (Nissui) in a volume twice as great as that of the MEMI. A mesothelial cell monolayer which had reached a confluent density after 1 week of culturing was used for invasion assay.
(§2) The MM1 cells, which are highly invasive clones of rat ascites hepatoma cells (AH-130), were established by Mukai et al., (Int. J. Cancer : 81, 918-922 (1999)), and was cultured under the same conditions as those for mesothelial cells.
In vitro invasion assay was developed by Akedo et al (Akedo, H et al., Cancer Res. 46, 2416-2422 (1986)). MM1 cells were multi-layer-cultured on the mesothelial cell layer, which had been grown to reach a confluent density, in the presence of 10% FBS or 25 μM LPA (SIGMA). 25 μM cPA was then added. The cells were cultured under conditions of 37° C. and 5% CO2 for 20 hours, and then fixed with 10% formalin. The number of colonies of MM1 cells that had invaded was counted under a phase-contrast microscope (FIG. 3). […]

MM1 cells [4] = experiment: In vitro invasion assay, LPA-induced invasion of MM1 cells across mesothelial cell monolayer; assay type: cell-based, rat; conditions: 25 μM cPA derivative, 25 μM LPA, 20 hours
Method: as §1, §2
In vitro invasion assay was developed by Akedo et al (Akedo, H et al., Cancer Res. 46, 2416-2422 (1986)). MM1 cells were multi-layer-cultured on the mesothelial cell layer, which had been grown to reach a confluent density, in the presence of 10% FBS or 25 μM LPA (SIGMA). 25 μM cPA was then added. The cells were cultured under conditions of 37° C. and 5% CO2 for 20 hours, and then fixed with 10% formalin. The number of colonies of MM1 cells that had invaded was counted under a phase-contrast microscope (FIG. 3).
cPA and LPA were ice-cooled in PBS containing 0.1% fatty-acid free BSA (SIGMA), ultrasonicated, emulsified, stored at −20° C., and then used.
0.5 μM, 1 μM and 10 μM carba-cPA were added to MM1 cells, and then in vitro invasion assay was performed similarly to (1-1) in the presence of 25 μM LPA.
The following reagents were respectively added to an in vitro invasion assay system so as to examine their effects on MM1 cell invasion in the presence of 25 μM LPA: Forskolin (Wako) which directly activates adenylate cyclase (cAMP synthase); cholera toxin (CTX) (GIBCO BRL) which prevent the deactivation of G protein (Gs) which activates adenylate cyclase; Bt2cAMP (nacalai tesque) which can pass through the membrane and functions in a manner similar to that of cAMP when it enters the cell; or isobutylmethylxanthine (IBMX, 3-isobutyl-1-methylxanthine) (SIGMA) which inhibits phosphodiesterase (cAMP degrading enzyme).

MM1 cells [5] = experiment: Measurement of intracellular cAMP in MM1 cells; assay type: cell-based, rat; conditions: 25 μM cPA or 10 μM Forskolin, pretreated with 1 mM IBMX
Method: After a certain time period, 10% ice-cooled TCA was added to stop the reaction. The centrifuged supernatant was washed 4 times with water-saturated diethylether to remove TCA, and then placed under nitrogen gas flow at 60° C. to remove the solvent completely. cAMP in the resultant sample was measured using a cyclic AMP [^3H] assay system (Amersham).

HT-1080 cells = experiment: In vitro invasion assay of HT-1080 cells in the absence of serum/LPA; assay type: cell-based, human
Method: HT-1080 cells were cultured under conditions of 37° C. and 5% CO2 in Eagle's MEMI (Nissui) supplemented with a one-hundredth volume of nonessential amino acid solution (GIBCO BRL) and 10% FBS. […] 4 hours later, the cells were fixed, and then the cells that had invaded were counted.

| Molecule | suppressed LPA-induced invasion by (MM1 cells [1]) | effect on MM1 cell proliferation (in words) (MM1 cells [2]) | further results |
| --- | --- | --- | --- |
| CCCCCCCCCCCCCCCCCCCC(=O)OCC1COP(=O)([O-])O1.[Na+] (stereo not shown) [Ara-cPA] | around 50% |  |  |
| CCCCCCCCCCCC(=O)OCC1COP(=O)([O-])O1.[Na+] (stereo not shown) [Lau-cPA] | around 50% |  |  |
| CCCCCCCC/C=C\CCCCCCCC(=O)OC[C@@H]1COP(=O)(O)O1 [Ole-cPA] | approximately 60% | proliferation suppressing activity | invasion suppressing action on LPA-induced invasion (in words) (MM1 cells [1]): weak |
| CCCCCC[C@@H]1C[C@@H]1CCCCCCCC(=O)OC[C@@H]1COP(=O)(O)O1 [PHYLPA] | around 50% |  |  |
| CCC=CCC=CCC=CCC=CCC=CCCCC(=O)OCC1COP(=O)(O)O1 (stereo not shown) [cPA-12] |  |  | suppression of FBS-induced invasion (MM1 cells [3]): approximately 70%; suppression of LPA-induced invasion (in words) (MM1 cells [4]): not suppressed |
| CCCCCC/C=C\CCCCCCCC(=O)OCC1COP(=O)([O-])O1.[Na+] (stereo not shown) [ΔPal-cPA] | around 50% | proliferation suppressing activity | invasion suppressing action on LPA-induced invasion (in words) (MM1 cells [1]): weak |
| carba-Pal-cPA [cPA-18] |  | no effect on MM1 cell proliferation | change of intracellular cAMP concentration (in words) (MM1 cells [5]; listed as Carba-Pal-cPA): a similar result was obtained; change of intracellular cAMP concentration (in words) (MM1 cells [5]; listed as carba-Pal-cPA): the change of cAMP concentration was not observed; invasion suppressing activity on HT-1080 cells (in words) (HT-1080 cells; 10 μM cPA, absence of serum/LPA, 4 hours): invasion suppressing activity on the cells at the same strength as or a level stronger than that exhibited by natural cPA |
| lysophosphatidic acid [LPA, reference compound] |  |  | promotion of HT-1080 cell invasion (in words) (HT-1080 cells; 25 μM LPA added): the invasion was no longer promoted |

Source: patent US20040214799A1, “Cancerous metastasis inhibitors containing carbacyclic phosphatidic acid derivatives” (priority 2001, published 2004)
